# Experimental data from EP4790046A1, “NOVEL COMPOUND DERIVED FROM MYRISTICA FRAGRANS, AND ANTICANCER COMPOSITION COMPRISING SAME” (Korea Institute of Science and Technology, priority 2023, dated 2025).
# Legend:
# [1] = test system: various cancer cell lines; assay: alamarBlue cell viability, statements across the cell line panel; details: various cancer cell lines
# Description: AGS, SW48, HepG2, and MiaPaCa-2 was purchased from ATCC (American Type Culture Collection, USA), SNU cell lines from the Korean Cell Line Bank (KCLB, Korea), and 23132/87 from the Leibniz Institute DSMZ - German Collection of Microorganisms and Cell Cultures GmbH (DSMZ, Germany). All cell lines were cultured in RPMI-1640 medium (HyClone, USA) supplemented with 10% FBS (Gibco, USA) and 1% penicillin-streptomycin (HyClone, USA) under conditions of 5% CO2, 37°C.
# Cells were seeded at a density of 5 × 10^3cells/well in a 96-well plate for 24 hours, then treated with the compound at an appropriate concentration (10 µM) for 48 hours. After treatment, alamarBlue reagent was added at a volume ratio of 1/10 of the treatment volume and incubated for 4 hours in a 37°C cell incubator (protected from direct light). Cell viability was then determined by measuring absorbance values at 570 nm and 600 nm using a microplate reader. The anticancer effects of candidate compounds were evaluated by assessing the cell viability (%) of cells treated at specific concentrations and the half-maximal inhibitory concentration (IC50) of each natural product. Doxorubicin and oxaliplatin were used as positive controls for gastric and colorectal cancer, respectively.
# Statistical analysis was performed using R software (version 4.2.2) (R Core Team). Differences between groups were assessed using student's t-test or 1-way ANOVA followed by post-hoc Tukey HSD test. A p-value < 0.05 was considered statistically significant.
# Further, to measure the IC50 values against six cancer cell lines.
# SNU-C5 = assay: alamarBlue cell viability (survival rate, IC50), SNU-C5; assay type: cell-based; details: SNU-C5 (colorectal cancer), compound 10 µM, 48 hours; read-out: Cancer cell line survival rate (%)
# Description: (§1) A p-value < 0.05 was considered statistically significant.
# SNU-81 = assay: alamarBlue cell viability (survival rate, IC50), SNU-81; assay type: cell-based; details: SNU-81 (colorectal cancer), compound 10 µM, 48 hours; read-out: Cancer cell line survival rate (%)
# Description: as §1
# MiaPaCa-2 = assay: alamarBlue cell viability (survival rate), MiaPaCa-2; assay type: cell-based; details: Homo sapiens, MIA PaCa-2; MiaPaCa-2 (pancreatic cancer), compound 10 µM, 48 hours; read-out: Cancer cell line survival rate (%)
# Description: as §1
# SNU-719 = assay: alamarBlue cell viability (survival rate, IC50), SNU-719; assay type: cell-based; details: SNU-719 (gastric cancer), compound 10 µM, 48 hours; read-out: Cancer cell line survival rate (%)
# Description: as §1
# SW48 = assay: alamarBlue cell viability (survival rate, IC50), SW48; assay type: cell-based; details: Homo sapiens; SW48 (colorectal cancer), compound 10 µM, 48 hours; read-out: Cancer cell line survival rate (%)
# Description: as §1
# 23132/87 = assay: alamarBlue cell viability (survival rate, IC50), 23132/87; assay type: cell-based; details: 23132/87 (gastric cancer), compound 10 µM, 48 hours; read-out: Cancer cell line survival rate (%)
# Description: as §1
# SNU201 = assay: alamarBlue cell viability (survival rate), SNU201; assay type: cell-based; details: SNU201 (glioblastoma), compound 10 µM, 48 hours; read-out: Cancer cell line survival rate (%)
# Description: as §1
# AGS = assay: alamarBlue cell viability (survival rate, IC50), AGS; assay type: cell-based; details: Homo sapiens; AGS (gastric cancer), compound 10 µM, 48 hours; read-out: Cancer cell line survival rate (%)
# Description: as §1
# HepG2 = assay: alamarBlue cell viability (survival rate), HepG2; assay type: cell-based; details: Homo sapiens; HepG2 (liver cancer), compound 10 µM, 48 hours; read-out: Cancer cell line survival rate (%)
# Description: as §1
# SNU466 = assay: alamarBlue cell viability (survival rate), SNU466; assay type: cell-based; details: SNU466 (glioblastoma), compound 10 µM, 48 hours; read-out: Cancer cell line survival rate (%)
# Description: as §1
SMILES,anticancer activity [1],viability at 10 µM (SNU-C5),viability at 10 µM (SNU-81),viability at 10 µM (MiaPaCa-2),viability at 10 µM (SNU-719),viability at 10 µM (SW48),viability at 10 µM (23132/87),viability at 10 µM (SNU201),viability at 10 µM (AGS),viability at 10 µM (HepG2),viability at 10 µM (SNU466)
"COc1cc(C(c2ccc(O)c(C(=O)CCCCCCCCc3ccc(O)c(O)c3)c2O)C(C)C(C)Cc2ccc3c(c2)OCO3)ccc1O (centres unmarked) [Compound 14, Myricone O]",high anticancer activity,18.8%,104%,87.8%,71.6%,31.1%,78.2%,101%,81.4%,67%,56.1%
"COc1cc(CC(C)C(C)C(c2ccc(O)c(OC)c2)c2ccc(O)c(C(=O)CCCCCCCCc3ccc(O)c(O)c3)c2O)ccc1O (centres unmarked) [Compound 15, Myricone P]",high anticancer activity,2.62%,6.63%,4.32%,2.14%,3.93%,1.45%,31.4%,8.49%,3.18%,0.99%
"COc1cc([C@H]2Oc3c(OC)cc(/C=C/Cc4cc(O)c(O)cc4CCCCCCCCC(=O)c4c(O)cccc4O)cc3[C@@H]2C)ccc1O [Compound 17, Myricone Q]",high anticancer activity,58.5%,113%,59.9%,54.9%,60.2%,85%,105%,80.5%,108%,45.6%
"COc1ccc(/C=C/Cc2ccc(O)c(C(=O)CCCCCCCCc3ccc(O)c(O)c3)c2O)cc1OC [Compound 21, Myricone Z]",high anticancer activity,6.53%,33.6%,7.58%,4.6%,3.51%,2.4%,67.8%,6.86%,6.05%,0.95%
